The series is described as follows: gradient 5% acetonitrile 3 min, to 50% in 2 min, to 85% in 15 min, held 3 min, 100 µL/min. As to conditions: column: Zorbax Extend-C18 2.1 x 50 mm; eluents: water / acetonitrile, 0.1% formic acid. The method, boiled down: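 Data were gathered over 3 months by HPLC coupled to a quadrupole time-of-flight mass spectrometer, operated in positive and negative ionization mode. Mixtures of ~100 pure standards ran on a Zorbax Extend-C18 column (2.1 × 50 mm, 1.8 μm) at 100 μL/min, with water and acetonitrile each containing 0.1% formic acid and dead and dwell volumes of 40 μL and 900 μL. Retention time was read from adduct peaks picked by computer and checked manually.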
On to `O=C(Nc1nc(-c2cc([N+](=O)[O-])cs2)cs1)C1=COCCO1`, for which the RP-LC retention time is 829 s.

In the case of `CCCCN(CC)Cc1ccc(CNC(=O)C2CCCN(c3nnc(N4CCCC4=O)s3)C2)o1` (stereo not drawn), the RP-LC retention time turned out to be 611 s.

Take `N#Cc1cccc2sc(C(=O)N=C(N)N)cc12`: the RP-LC retention time is 625 s.

As to `COC(=O)CC(=O)Nc1cc2c(cc1N1CCCC1)n(C)c(=O)n2C`, the RP-LC retention time amounted to 565 s.

As for `CCN1C(=O)c2c(C(=O)NCc3cccc(Cl)c3)ncn2CC1(C)C(=O)NC1CCCC1` (stereo not drawn), the RP-LC retention time stood at 804 s.

Compound `COc1ccc(NC(=O)C2(C)Oc3cccnc3N(C(C)C)C2=O)cc1` (stereo not drawn) came in with an RP-LC retention time of 918 s.

For `O=C(c1ccccc1)N1CCc2sc(C(=O)N3CCN(c4ccccn4)CC3)cc2C1`, the RP-LC retention time is 608 s.

In the case of `O=C(OCc1nc2ccccc2s1)c1ccc2c(c1)OCCO2`, the RP-LC retention time was determined as 953 s.

Regarding `CCc1cccc(NC(=O)C2CCCN(c3ncnc4c3nc3n4CCCCC3)C2)c1` (stereo not drawn), the RP-LC retention time came out at 758 s.

Compound `Nc1cc(C2CCN(C(=O)Nc3ccccc3F)CC2)no1` registered an RP-LC retention time of 649 s.

Compound `O=C(NCc1cccc(Cl)c1)c1ccc2c(c1)ncn2CCN1CCCC1` yielded an RP-LC retention time of 601 s.

Turning to `COc1ccc(C(=O)Nc2nc(CC(=O)NCc3cccs3)cs2)cc1`, the RP-LC retention time came out at 739 s.

`CCCn1cc(C(=O)NCCCOC)c(S(=O)(=O)N2CCN(c3cccc(Cl)c3)CC2)n1`: the RP-LC retention time was found to be 1020 s.

Compound `Cn1nc(C(=O)NC2CCN(c3cc(-c4ccccc4)[nH]n3)CC2)c2ccccc21` showed an RP-LC retention time of 792 s.

The compound `O=C(Nc1ccc(Cl)cc1F)N1CCC(N2CC(F)(F)C[C@H]2COCC2CC2)CC1` returned an RP-LC retention time of 741 s.

The compound `O=C(NCCCc1ccccc1)C1CCN(c2nnc3ccc(Cl)cn23)CC1` registered an RP-LC retention time of 760 s.

`CCc1nc(-c2csc(S(=O)(=O)N3CCC(C(=O)Nc4cccc(F)c4)CC3)c2)no1` returned an RP-LC retention time of 1010 s.

The compound `O=C(NCc1ccc(F)cc1F)C1CCN(c2nnc(-c3ccccc3)o2)CC1` registered an RP-LC retention time of 816 s.

With `CCc1nnc(NC(=O)c2ccc(-c3ccccc3Cl)o2)s1`, the RP-LC retention time came to 906 s.

The compound `COc1cccc(NC(=O)CN2C(=O)CC(c3cccs3)=Nc3ccccc32)c1` displayed an RP-LC retention time of 898 s.

`COc1ccccc1N1CCN(C(=O)c2ccc(OCc3nc(C4CC4)cs3)cc2)CC1` had an RP-LC retention time of 911 s.

`O=C(c1cn(-c2ccc(S(=O)(=O)N3CCCCC3)cc2)cn1)N1CCN(c2ccccn2)CC1` had an RP-LC retention time of 633 s.

`CC1(C(=O)N2CC(F)(F)C[C@H]2c2nc(-c3ncccn3)no2)CC1` showed an RP-LC retention time of 674 s.

Regarding `O=C(c1cc(-c2ccncc2)n[nH]1)N1CCCC(C(=O)N2CCc3ccccc3C2)C1` (stereo not drawn), the RP-LC retention time was found to be 608 s.

Turning to `O=C(CSCc1ccccc1)NCC1(c2cccs2)CCOCC1`, the RP-LC retention time came to 819 s.

As for `COCC1CN(Cc2ccc(OC(F)(F)F)cc2)CC12CCNCC2` (stereo not drawn), the RP-LC retention time was 579 s.

`CCn1c(=O)n(CC)c2cc(S(=O)(=O)c3ccc(C)cc3)c(N)cc21` showed an RP-LC retention time of 760 s.

Compound `COc1ccc(C(=O)N2CCCC(COc3ccc(C(=O)NC(C)C)cc3)C2)cc1F` (stereo not drawn) gave an RP-LC retention time of 846 s.

For `CCOc1ccccc1-c1noc(Cn2c(=O)n(Cc3ccccc3Cl)c(=O)c3sccc32)n1`, the RP-LC retention time turned out to be 1160 s.

In the case of `O=C(c1cccc(Cl)c1)N1CCN(c2cc(-c3cccnc3)[nH]n2)CC1`, the RP-LC retention time was determined as 621 s.

In turn, `O=C(CSc1nnc(-c2ccccc2)c(-c2ccccc2)n1)Nc1nccs1` showed an RP-LC retention time of 840 s.

Take `COc1cc(OC)c(NC(=O)N(C)Cc2nc3cc(C(=O)N(C)C)ccc3n2C)cc1Cl`: the RP-LC retention time amounted to 619 s.

The compound `Cc1cc(OC(C)C(=O)Nc2ccnn2Cc2ccco2)ccc1Cl` (stereo not drawn) yielded an RP-LC retention time of 921 s.

Consider `Cc1cc(F)ccc1NC(=O)c1cc(C2CC2)n2nccc2n1`, for which the RP-LC retention time worked out at 1030 s.

The compound `CC1=C(c2ccccc2)S(=O)(=O)N=C1N1CCCN(C(=O)C(C)c2ccccc2)CC1` (stereo not drawn) registered an RP-LC retention time of 873 s.

Take `COC(=O)c1cnc2nc(C)ccc2c1Nc1ccc(Cl)cc1C`: the RP-LC retention time amounted to 721 s.

In turn, `c1ccc(-c2n[nH]c(C3CCCN(Cc4ccoc4)C3)n2)cc1` (stereo not drawn) displayed an RP-LC retention time of 531 s.

`Cc1nnc2cc(N3CCN(S(=O)(=O)c4ccccc4F)CC3)cnn12` came in with an RP-LC retention time of 674 s.

In turn, `COc1cc([C@@H]2c3cc4c(cc3[C@H](O)[C@@H](CO)[C@@H]2C(=O)NCCCc2ccccc2)OCO4)cc(OC)c1OC` showed an RP-LC retention time of 761 s.

`CCN1CCN(c2nc3cc(C(=O)OC)ccc3c(=O)n2-c2cccc(Cl)c2)CC1` returned an RP-LC retention time of 665 s.

As for `Cc1cc(C)cc(-n2ccn3c(CCC(=O)NCCc4c[nH]c5ccccc45)nnc3c2=O)c1`, the RP-LC retention time worked out at 744 s.

Consider `COC1CCC12CCN(Cc1cccc(C#N)c1)CC2` (stereo not drawn), for which the RP-LC retention time was 597 s.

`Cc1ccc(-n2c(=O)n(CC(=O)NCCCN(C)C)c3cccnc32)cc1` gave an RP-LC retention time of 593 s.

For `COc1ccc(C(=O)N2C[C@@H](Oc3cccnc3)C[C@H]2C(=O)NC2CC2)c(OC)n1`, the RP-LC retention time came to 602 s.

As to `CCC(C)(C)NS(=O)(=O)c1ccc(-c2c(C)noc2C)cc1`, the RP-LC retention time came out at 939 s.

Turning to `CCc1noc(-c2cccn2Cc2cc(F)cc(F)c2)n1`, the RP-LC retention time was 1160 s.

With `CC1CCN(c2cc(-n3cnc(C(=O)NCc4ccc5c(c4)OCO5)c3)ncn2)CC1`, the RP-LC retention time is 964 s.

Consider `O=C(COc1ncccn1)N1CCN(c2ncccn2)CC1`, for which the RP-LC retention time is 579 s.

On to `Cc1cc(-c2nnc(-c3ccccc3)o2)c(C)n1CC(=O)Nc1ccc(F)c(F)c1`, for which the RP-LC retention time came to 1010 s.

The compound `CCCCCOc1ccc(C(=O)N(Cc2ccc(C)o2)C2CCS(=O)(=O)C2)cc1` (stereo not drawn) yielded an RP-LC retention time of 1110 s.

Take `O=S(=O)(c1ccc(Cl)c(-c2nnc(-c3ccccc3)o2)c1)N1CCCC1`: the RP-LC retention time came out at 1040 s.

The compound `CCCN(C)c1nccn2c(=O)n(CC(=O)Nc3ccc(C)cc3)nc12` had an RP-LC retention time of 683 s.

Consider `Cc1nn2c(CNS(=O)(=O)c3ccc(C)c(C)c3)c(-c3ccccc3)nc2s1`, for which the RP-LC retention time amounted to 916 s.

In the case of `Cn1nc(-c2nc(C3CC3)no2)c2c1CCN(S(=O)(=O)c1cccc(Cl)c1)C2`, the RP-LC retention time is 1000 s.

`Cc1cc(C)cc(Nc2nc(C)cc(=O)n2CC(=O)Nc2cccc(Br)c2)c1` displayed an RP-LC retention time of 934 s.

In the case of `CCC(C)C(NC(=O)c1ccc(C(C)C)cc1)C(=O)Nc1nc2ccccc2[nH]1` (stereo not drawn), the RP-LC retention time amounted to 856 s.

Compound `O=C1C(=O)N(Cc2ccc(C(=O)N3CCOCC3)cc2)CCN1Cc1ccc(F)cc1` returned an RP-LC retention time of 652 s.

`CCc1noc(-c2cnc3nc(C)ccc3c2NCc2ccccc2OC)n1` yielded an RP-LC retention time of 724 s.

For `CCNC(=O)Nc1ccc2c(c1)CN(S(=O)(=O)C(C)C)CCO2`, the RP-LC retention time stood at 676 s.

In turn, `COc1ccc(-n2nc(N3CCN(C(=O)CC4CCCC4)CC3)ccc2=O)cc1` gave an RP-LC retention time of 800 s.

Compound `CC(C)C1c2nccn2CCCN1C(=O)c1n[nH]c(=O)c2ccccc12` (stereo not drawn) had an RP-LC retention time of 569 s.

Regarding `O=C(Nc1cc(-c2cccs2)no1)c1cc(F)cc(F)c1`, the RP-LC retention time came out at 1010 s.

`COc1ccc(S(=O)(=O)N2C[C@@H](F)C[C@H]2C(=O)N2CCc3ccccc3C2)cc1`: the RP-LC retention time was determined as 877 s.

`O=C(NCc1ccc(Br)cc1)c1cn2c(n1)CCCC2` gave an RP-LC retention time of 633 s.

Compound `CN(C)c1nccnc1OC1CCN(C(=O)c2ccncc2)C1` (stereo not drawn) returned an RP-LC retention time of 553 s.

For `Cc1ccc(NC(=O)Cn2nc(N3CCSCC3)c3ccccc3c2=O)cc1F`, the RP-LC retention time came to 976 s.

`CC(=O)N1c2ccc(S(=O)(=O)N3CCCCCC3)cc2CC1C(=O)NCc1ccccc1Cl` (stereo not drawn) had an RP-LC retention time of 950 s.

Compound `CCN(C(=O)Cn1c(CN(C)C(=O)c2ccco2)nc2ccccc21)c1ccccc1` had an RP-LC retention time of 704 s.

Turning to `COc1ccc(NC(=O)C2c3cc(OC)c(OC)cc3C(=O)N(C)C2c2cccs2)c(OC)c1` (stereo not drawn), the RP-LC retention time came to 846 s.

In turn, `O=C(Cn1cccc1-c1nnc(-c2ccccc2)o1)Nc1ccc(F)c(F)c1` gave an RP-LC retention time of 997 s.

As to `O=C(Nc1cc(F)cc(F)c1)c1c(O)c2cccnc2n(-c2cccc(F)c2)c1=O`, the RP-LC retention time worked out at 1310 s.

In turn, `Cc1ccc(CN2C(=O)C3CCCCC3C2=O)cc1S(=O)(=O)N1CCN(c2ccccn2)CC1` (stereo not drawn) had an RP-LC retention time of 724 s.

On to `CC(C)CN1CCn2cc(S(=O)(=O)NCc3cc(F)cc(F)c3)cc2C1=O`, for which the RP-LC retention time stood at 808 s.

The compound `O=c1n(Cc2ccccc2F)nc2ccc(S(=O)(=O)N3CCc4ccccc4C3)cn12` came in with an RP-LC retention time of 984 s.

For `CCCNC(=O)c1cc(N2CCCC2)n2nccc2n1`, the RP-LC retention time was 792 s.

As for `Cc1ccc(C)c(CNC(=O)C2CCN(CCc3cn(C)c4ncccc34)CC2)c1`, the RP-LC retention time is 639 s.

On to `CCOC(=O)c1c(C)[nH]c(C(=O)N2CCCC(C(=O)NCc3ccc(F)cc3)C2)c1C` (stereo not drawn), for which the RP-LC retention time turned out to be 803 s.

For the compound `O=C1CCN(C(=O)C2CCN(C(=O)C3CC3)CC2)CCCCCCN1`, the RP-LC retention time was found to be 598 s.
